In US20050107959A1, “Screening method for evaluation of bilayer-drug interaction in liposomal compositions” (priority 2003, published 2005):

Assay: Differential scanning calorimetry (VP-DSC) of DSPC liposomes (MLVs) with drugs
Type: physicochemical
Parameters: ΔHcal / ΔHvH / ΔHv: unit not given here
Details: for Interaction of the drug with the lipid bilayer (thermogram deviation from DSPC control): FIGS. 1A-1D, pH 3.6, DSPC/drug mixture vs DSPC control; for ΔHcal: calorimetric phase transition enthalpy; for ΔHcal / Cpmax / ΔTm½ / ΔT½: drug-to-lipid 1:5; for CU: cooperativity unit = ΔHvH/ΔHcal; for Tm: drug-to-lipid mole ratio 1:5; for Cpmax: heat capacity at phase transition peak; for ΔTm½ / ΔT½: transition peak width at half-height; for ΔHvH / ΔHv: van't Hoff's enthalpy calculated from DSC measurements; for Coop: cooperativity calculated from DSC measurements
From the text: Differential scanning calorimetry (DSC) is a method known in the art used to measure the amount of energy (as heat) absorbed or released by a sample as it is heated, cooled, or held at a constant temperature. As used herein, the term “DSC measurements” further includes calculations using a measured feature of the sample. An exemplary method of measuring DSC utilizes a differential scanning calorimeter. Any calorimeter is suitable as long as the temperature range of the calorimeter is appropriate for the sample measurements. An exemplary calorimeter is the VP-DSC differential scanning calorimeter available from MicroCal (Northampton, Mass., USA). Typical applications using the differential scanning calorimeter include determination of melting point temperature and/or the heat of melting, measurement of the glass transition temperature, curing and crystallization studies, and identification of phase transformations.
In the embodiment using a differential scanning calorimeter for measuring the thermodynamic properties of a lipid suspension, the heat flow into a sample is usually contained in a sample cell and measured differentially, i.e. by comparing the heat flow of the sample to the heat flow into an reference cell containing an equal volume of water or the aqueous component of the sample. The heat flow may be considered as the amount of heat (q) supplied per unit of time (t), or q/t. Typically, both cells sit inside a metal jacket with a known (calibrated) heat resistance (K). The temperature of the calorimeter is raised linearly with time (scanned), where the heating rate (β=dT/dt) of the cells are kept constant and consistent with each other. […] The temperature may be controlled manually or automatically. […] Heat flows into the two cells by conduction from a heat source such as a radiator. The heat flow into the sample cell is larger due to the additional heat capacity (Cp) of the sample during the course of the phase transition. Heat capacity refers to the heat flow divided by the heating rate or Cp=q/ΔT, where q is heat, and ΔT is temperature increase. The difference in heat flow (dq/dt) induces a temperature difference (dT) between the sample and the reference cells. This temperature difference is measured using any appropriate sensor, such as a thermocouple, and a signal is generated representative of the difference.
In this figure, in a heating scan, an endothermic event results in a positive (upward) deviation from the baseline. […] The melting temperature is seen on the heat flow plot as a peak as heat is absorbed by the sample until the phase transition is completed. As will be appreciated by those of skill in the art, the main phase transition extends over a temperature range, although this peak is typically very sharp for most vesicle-forming lipids, such as DSPC, the Tm can be reported as the onset of the transition, as the midpoint of the transition, the peak temperature, or any suitable point as long as the parameters are defined. […] It will be appreciated that the exact percent of phase transition is not important as long as it is defined. Where a ratio is used, it is desirable to use the same ratio for each sample to aid in comparison between the samples. In the studies reported herein, the Tm is reported as the maximum peak of the transition range.
The latent heat of melting, or the calorimetric phase transition enthalpy, (ΔHcal) can be determined by first determining the area (A) under the peak according to the following formula: A=(heat in calories)(temperature in Kelvin)/(time in seconds)(mass in moles).

[1] = pH 3.6, scan 20° C./hour, maximum peak of main phase transition

Row | SMILES | Interaction of the drug with the lipid bilayer (thermogram deviation from DSPC control) | ΔHcal (pH 3.6) | CU (pH 3.6) | Tm (pH 3.6) [°C] | Tm [1] [°C] | Cpmax (pH 3.6) | ΔTm½ (pH 3.6) [°C] | ΔHvH (pH 3.6) | ΔHcal (pH 7.0) | Coop (pH 7.0) | Tm (pH 7.0) [°C] | Tm (pH 7.0, scan 20° C./hour) [C.] | Cpmax (pH 7.0) | ΔT½ (pH 7.0) [°C] | ΔHv (pH 7.0)
1 | CC[C@@]1(O)C(=O)OCc2c1cc1n(c2=O)Cc2c-1nc1ccccc1c2CCNC(C)C [CKD602] | some interaction | 11.81 | 45.9 | 54.7 | 54.6 | 7.5 | 1.27 | 542.3 | 11.2 | 117 | 54.43 | 54.43 | 17.2 | 0.42 | 1308
2 | O=C(O)c1cn(C2CC2)c2cc(N3CCNCC3)c(F)cc2c1=O [ciprofloxacin] |  | 9.98 | 38.6 | 55 | 54.9 | 4.5 |  | 385.6 |  |  |  |  |  |  | 
3 | COc1cccc2c1C(=O)c1c(O)c3c(c(O)c1C2=O)C[C@@](O)(C(=O)CO)C[C@@H]3O[C@H]1C[C@H](N)[C@H](O)[C@H](C)O1 [doxorubicin] | weak interaction | 9.28 | 73.3 | 54.6 | 54.5 | 7.4 | 0.94 | 680.5 | 9.66 | 149 | 54.5 | 54.45 | 16.3 | 0.4 | 1437
4 | CC[C@]1(O)C[C@H]2CN(CCc3c([nH]c4ccccc34)[C@@](C(=O)OC)(c3cc4c(cc3OC)N(C=O)[C@H]3[C@@](O)(C(=O)OC)[C@H](OC(C)=O)[C@]5(CC)C=CCN6CC[C@]43[C@@H]65)C2)C1 [vincristine] | some interaction | 12.77 | 37.2 | 54.7 | 54.6 | 7.1 | 1.42 | 474.9 | 11.65 | 43 | 53.93 | 53.93 | 6.81 | 1.38 | 496
5 | CC(=O)O[C@H]1C(=O)[C@@]2(C)[C@H]([C@H](OC(=O)c3ccccc3)[C@]3(O)C[C@H](OC(=O)[C@H](O)[C@@H](NC(=O)c4ccccc4)c4ccccc4)C(C)=C1C3(C)C)[C@]1(OC(C)=O)CO[C@@H]1C[C@@H]2O [paclitaxel] | significant interaction | 10.6 | 26.6 | 54.5 | 54.5 | 3.5 | 2.27 | 281.7 | 9.94 | 75 | 54.07 | 54.07 | 8.67 | 0.77 | 741
